Assay: pKa of the ionizable lipid (ethanolamine headgroup)
Type: physicochemical
Conditions: uncharged at physiological pH

`CCCCC/C=C\C/C=C\CCCCCCCCOC(=O)CCCCCCCN(CCO)CCCCCCCC(=O)OC(CCCCCCCC)CCCCCCCC` [PCTA-1] showed a pKa of 6.2 to 6.8.
